{"source": "EPA's ToxValDB 9.5 (doi:10.2903/j.efsa.2010.1523)", "key": {"Coturnix japonica": {"system": "Coturnix japonica", "conditions": "reproduction developmental"}, "Canidae": {"system": "Canidae", "conditions": "chronic; duration: 1 years; oral; Dog Other; hematological"}, "Apis mellifera": {"system": "Apis mellifera", "conditions": "acute; duration: 48 hours; dermal; mortality"}, "Rattus norvegicus": {"system": "Rattus norvegicus", "conditions": "acute; oral; mortality"}, "Daphnia magna": {"system": "Daphnia magna", "conditions": "chronic/long-term; duration: 21 days; reproduction"}, "Tagia sp.": {"system": "Tagia sp.", "conditions": "acute; duration: 14 days; mortality"}, "Mus musculus": {"system": "Mus musculus", "conditions": "acute; oral; mortality"}, "Colinus virginianus": {"system": "Colinus virginianus", "conditions": "acute, oral, mortality"}, "Aphidius rhopalosiphi": {"system": "Aphidius rhopalosiphi", "experiment": "LR50; higher = less toxic", "conditions": "not reported; mortality"}}}
{"compound": "Cc1cnc2c(C(=O)O)c(Cl)ccc2c1", "note": "[Quinmerac]", "values": [{"measurement": "NOEC", "setting": "Coturnix japonica", "result": 173, "unit": "mg/kg-day"}, {"measurement": "NOAEL", "setting": "Canidae", "result": 7.9, "unit": "mg/kg-day"}, {"measurement": "LD50", "setting": "Apis mellifera", "result": "> 100", "unit": "µg/piece"}, {"measurement": "LD50", "setting": "Rattus norvegicus", "result": "> 5000", "unit": "mg/kg-day"}, {"measurement": "NOEC", "setting": "Daphnia magna", "result": 100, "unit": "mg/L"}, {"measurement": "NOEL", "setting": "Oryctolagus sp.; chronic", "result": 100, "unit": "mg/kg-day"}, {"measurement": "NOAEL", "setting": "Oryctolagus sp.; developmental, development", "result": 30, "unit": "mg/kg-day"}, {"measurement": "LC50", "setting": "Tagia sp.", "result": "> 1000", "unit": "mg/kg"}, {"measurement": "LD50", "setting": "Mus musculus", "result": "> 5000", "unit": "mg/kg-day"}, {"measurement": "LC50", "setting": "Oncorhynchus mykiss; acute, duration: 96 hours, mortality", "result": 86.8, "unit": "µg/mL"}, {"measurement": "NOEC", "setting": "Oncorhynchus mykiss; chronic/long-term, duration: 28 days, growth", "result": 3.16, "unit": "mg/L"}, {"measurement": "LC50", "setting": "Colinus virginianus; diet", "result": "> 933", "unit": "mg/kg-day"}, {"measurement": "LD50", "setting": "Colinus virginianus", "result": "> 2000", "unit": "mg/kg-day"}, {"measurement": "LR50", "setting": "Aphidius rhopalosiphi", "result": "> 500", "unit": "g/ha"}]}
